Reference: patent publication US12171229B2, “Heteroaryl-triazole and heteroaryl-tetrazole compounds as pesticides” (BAYER AKTIENGESELLSCHAFT, priority 2018, dated 2024)

Columns and labels:
Type in all cases: in vivo
[1] = test system: Ctenocephalides felis; test: Ctenocephalides felis oral test; conditions: 48 h, 100 ppm in cattle blood, after 2 days, adult unfed cat fleas
Method in brief: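 Compound dissolved in DMSO and diluted in cattle blood to test concentration, offered to ~20 unfed adult fleas via a parafilm-sealed blood chamber held at 37° C (fleas at room temperature). Kill recorded at 2 days as % mortality.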

[2] = test system: Musca domestica strain WHO-N; test: Musca domestica test (MUSCDO surface treatment & contact assay); conditions: 24 hours after contact, read-out: efficacy (mortality); for mortality at 20 mg/m2: surface concentration 20 mg/m^2, exposure 30 minutes; for mortality at 4 mg/m2: surface concentration 4 mg/m^2, exposure 30 minutes
Method in brief: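 Adult WHO-N flies exposed for 30 minutes on a glazed tile coated with compound dissolved in acetone (2 mg/ml) with 2000 ppm rapeseed oil methyl ester, acetone evaporated. Percent mortality read 24 hours after contact.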

[3] = test system: Culex quinquefasciatus strain P00; test: Culex quinquefasciatus test (CULXFA surface treatment & contact assay); conditions: 24 hours after contact, read-out: efficacy (mortality); for mortality at 4 mg/m2: surface concentration 4 mg/m^2, exposure 30 minutes; for mortality at 20 mg/m2: surface concentration 20 mg/m^2, exposure 30 minutes
Method in brief: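 Compound dissolved in acetone (2 mg/ml) with 2000 ppm rapeseed oil methyl ester, applied to glazed tile and dried; adult C. quinquefasciatus strain P00 exposed to surface for 30 minutes. Mortality (%) scored 24 hours after contact.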

[4] = test system: Nezara viridula; test: Nezara viridula spray test; conditions: 96 h, after 4 days, larvae on barley plants
Method in brief: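 Mortality (%) was assessed at day 4, from 0% (no bugs dead) to 100% (all dead). The spray solution was compound diluted to test concentration in water with 1000 ppm emulsifier and applied to barley carrying southern green stink bug larvae.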

[5] = test system: Anopheles funestus strain FUMOZ-R; test: Anopheles funestus test (ANPHFU surface treatment & contact assay); conditions: 24 hours after contact, read-out: efficacy (mortality); for mortality at 4 mg/m2: surface concentration 4 mg/m^2, exposure 30 minutes; for mortality at 20 mg/m2: surface concentration 20 mg/m^2, exposure 30 minutes
Protocol: Anopheles funestus Test (ANPHFU Surface Treatment & Contact Assay)
Solvent: Aceton+2000 ppm rapeseed oil methyl ester (RME)
In order to produce a sufficient, active ingredient containing solution it is necessary to solve the test compound in the solvent-mix (acetone at 2 mg/ml/RME 2000 ppm). This solution is pipetted onto a glazed tile and after evaporation of the acetone, adult mosquitoes of the species Anopheles funestus strain FUMOZ-R (Hunt et al., Med. Vet. Entomol. 2005 September; 19(3): 271-275) are placed onto the dried surface. The exposure time is 30 minutes.
Mortality in percent (%) is determined 24 hours after contact of the insects to the treated surface. 100% mortality means that all tested insects are dead, whereas 0% means that no insect died.

[6] = test system: Diabrotica balteata; test: Diabrotica balteata spray test; conditions: Diabrotica balteata, in Triticum aestivum, 168 h, after 7 days, larvae on wheat seeds, read-out: efficacy (seedlings grown up); for pest or weed control at 80 µg/disc, 250 g/ha: 80 μg/well (=250 g/ha); for pest or weed control at 160 µg/disc, 500 g/ha: 160 μg/well (=500 g/ha)
Method in brief: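 Scoring at 7 days compares seedling growth with untreated, uninfested controls (100% = equal growth, 0% = none grown). Wheat seedlings germinated 1 day on agar, 5 per well, received a spray of test solution made in 1000 ppm emulsifier water. Each unit then received 10–20 beetle larvae.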

[7] = test system: Ctenocephalides felis; test: Ctenocephalides felis in-vitro contact test, adult cat flea; conditions: 5 μg/cm^2 (=500 g/ha), after 48 hours, adult cat fleas, read-out: efficacy (fleas dead or moribund)
Method in brief: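 Compound in acetone coated onto inner walls of glass tubes, e.g. 900 ppm giving 5 μg/cm². After drying, 5–10 adult C. felis added per tube and held at room temperature. At 48 h, fleas unable to escape a 45–50 °C heating plate within 5 min scored dead/moribund, giving % efficacy.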

[8] = test system: Myzus persicae; test: Myzus persicae oral test; conditions: 120 h, after 5 days
Method in brief: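 Aphid mortality (%) was recorded 5 days after a mixed Myzus persicae population began sucking, through parafilm, on compound solutions (acetone stock diluted with water) combined with sugar-supplemented IPL41 medium.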

C[C@H](NC(=O)c1cc(Cl)cc(C(F)(F)F)c1)c1ncnn1-c1ncc(Cl)cc1F [Example I-013]
100%: mortality at 100 ppm [1] | mortality at 500 g/ha [4] | pest or weed control at 80 µg/disc, 250 g/ha [6] | pest or weed control at 160 µg/disc, 500 g/ha [6]
85 to 100%: mortality at 4 mg/m2 [5]
90 to 100%: mortality at 20 mg/m2 [2] | mortality at 4 mg/m2 [3] | mortality at 20 mg/m2 [3] | mortality at 20 mg/m2 [5]

C[C@H](NC(=O)c1cc(C(F)(F)F)cc(C(F)(F)F)c1)c1ncnn1-c1ccc(C#N)cn1 [Example I-052]
85 to 100%: mortality at 4 mg/m2 [5]
90%: pest or weed control at 5 µg/cm2 [7]
90 to 100%: mortality at 4 mg/m2 [2] | mortality at 20 mg/m2 [2] | mortality at 4 mg/m2 [3] | mortality at 20 mg/m2 [3]
100%: mortality at 100 ppm [1] | mortality at 100 g/ha [4] | mortality at 500 g/ha [4] | mortality at 4 ppm [8] | pest or weed control at 80 µg/disc, 250 g/ha [6] | pest or weed control at 160 µg/disc, 500 g/ha [6]

C[C@H](NC(=O)c1cc(F)cc(C#N)c1)c1ncnn1-c1ccc(C#N)cn1 [Example I-018]
100%: mortality at 100 ppm [1] | pest or weed control at 5 µg/cm2 [7] | mortality at 100 g/ha [4] | mortality at 500 g/ha [4] | pest or weed control at 80 µg/disc, 250 g/ha [6] | pest or weed control at 160 µg/disc, 500 g/ha [6]
90%: mortality at 4 ppm [8]
90 to 100%: mortality at 4 mg/m2 [2] | mortality at 20 mg/m2 [2] | mortality at 4 mg/m2 [3] | mortality at 20 mg/m2 [3] | mortality at 20 mg/m2 [5]
85 to 100%: mortality at 4 mg/m2 [5]

Cc1nc([C@H](C)NC(=O)c2cc(C(F)(F)F)cc(C(F)(F)F)c2)n(-c2ccc(C#N)cn2)n1 [Example I-056]
100%: mortality at 100 ppm [1] | pest or weed control at 5 µg/cm2 [7] | mortality at 100 g/ha [4] | mortality at 500 g/ha [4] | mortality at 4 ppm [8] | pest or weed control at 80 µg/disc, 250 g/ha [6] | pest or weed control at 160 µg/disc, 500 g/ha [6]
90 to 100%: mortality at 4 mg/m2 [2] | mortality at 20 mg/m2 [2] | mortality at 4 mg/m2 [3] | mortality at 20 mg/m2 [3]

C[C@H](NC(=O)c1cc(Cl)cc(Cl)c1)c1ncnn1-c1ccc(C#N)cn1 [Example I-047]
85 to 100%: mortality at 4 mg/m2 [5]
100%: mortality at 100 ppm [1] | pest or weed control at 5 µg/cm2 [7] | mortality at 500 g/ha [4] | pest or weed control at 80 µg/disc, 250 g/ha [6] | pest or weed control at 160 µg/disc, 500 g/ha [6]
90 to 100%: mortality at 4 mg/m2 [2] | mortality at 20 mg/m2 [2] | mortality at 4 mg/m2 [3] | mortality at 20 mg/m2 [3] | mortality at 20 mg/m2 [5]

C[C@H](NC(=O)c1cc(Cl)cc(SC(F)(F)F)c1)c1ncnn1-c1ccc(C#N)cn1 [Example I-042]
85 to 100%: mortality at 4 mg/m2 [5]
100%: mortality at 100 ppm [1] | mortality at 100 g/ha [4] | mortality at 500 g/ha [4] | mortality at 4 ppm [8] | pest or weed control at 80 µg/disc, 250 g/ha [6] | pest or weed control at 160 µg/disc, 500 g/ha [6]
90%: pest or weed control at 5 µg/cm2 [7]
90 to 100%: mortality at 4 mg/m2 [2] | mortality at 20 mg/m2 [2] | mortality at 4 mg/m2 [3] | mortality at 20 mg/m2 [3] | mortality at 20 mg/m2 [5]

C[C@H](NC(=O)c1cc(Cl)cc(C(F)(F)F)c1)c1ncnn1-c1ccc([N+](=O)[O-])cn1 [Example I-028]
85 to 100%: mortality at 4 mg/m2 [5]
90 to 100%: mortality at 4 mg/m2 [2] | mortality at 20 mg/m2 [2] | mortality at 4 mg/m2 [3] | mortality at 20 mg/m2 [3] | mortality at 20 mg/m2 [5]
100%: mortality at 100 ppm [1] | mortality at 100 g/ha [4] | mortality at 500 g/ha [4] | mortality at 4 ppm [8] | pest or weed control at 80 µg/disc, 250 g/ha [6] | pest or weed control at 160 µg/disc, 500 g/ha [6]

C[C@H](NC(=O)c1cc(Cl)cc(C(F)(F)F)c1)c1ncnn1-c1cc(C#N)ccn1 [Example I-015]
100%: mortality at 100 ppm [1] | pest or weed control at 5 µg/cm2 [7] | mortality at 500 g/ha [4] | mortality at 4 ppm [8] | pest or weed control at 80 µg/disc, 250 g/ha [6]
90 to 100%: mortality at 20 mg/m2 [2] | mortality at 4 mg/m2 [3] | mortality at 20 mg/m2 [3] | mortality at 20 mg/m2 [5]

C[C@H](NC(=O)c1cc(Cl)cc(Br)c1)c1ncnn1-c1ccc(C#N)cn1 [Example I-046]
85 to 100%: mortality at 4 mg/m2 [5]
90 to 100%: mortality at 4 mg/m2 [2] | mortality at 20 mg/m2 [2] | mortality at 4 mg/m2 [3] | mortality at 20 mg/m2 [3] | mortality at 20 mg/m2 [5]
100%: mortality at 100 ppm [1] | pest or weed control at 5 µg/cm2 [7] | mortality at 4 ppm [8] | pest or weed control at 80 µg/disc, 250 g/ha [6] | pest or weed control at 160 µg/disc, 500 g/ha [6]

C[C@H](NC(=O)c1cc(Cl)cc(OC(F)(F)F)c1)c1ncnn1-c1ccc(C#N)cn1 [Example I-041, 3-chloro-N-{(1S)-1-[1-(5-cyanopyridin-2-yl)-1H-1,2,4-triazol-5-yl]ethyl}-5-(trifluoromethoxy)benzamide]
100%: mortality at 100 ppm [1] | pest or weed control at 5 µg/cm2 [7] | mortality at 100 g/ha [4] | mortality at 500 g/ha [4] | mortality at 4 ppm [8] | pest or weed control at 80 µg/disc, 250 g/ha [6] | pest or weed control at 160 µg/disc, 500 g/ha [6]
90 to 100%: mortality at 4 mg/m2 [2] | mortality at 20 mg/m2 [2] | mortality at 4 mg/m2 [3] | mortality at 20 mg/m2 [3] | mortality at 20 mg/m2 [5]
85 to 100%: mortality at 4 mg/m2 [5]

C[C@H](NC(=O)c1cc(F)cc(C(F)(F)F)c1)c1ncnn1-c1ccc(C#N)cn1 [Example I-019]
100%: mortality at 100 ppm [1] | pest or weed control at 5 µg/cm2 [7] | pest or weed control at 80 µg/disc, 250 g/ha [6] | pest or weed control at 160 µg/disc, 500 g/ha [6]
90%: mortality at 500 g/ha [4]
85 to 100%: mortality at 4 mg/m2 [5]
90 to 100%: mortality at 4 mg/m2 [2] | mortality at 20 mg/m2 [2] | mortality at 4 mg/m2 [3] | mortality at 20 mg/m2 [3] | mortality at 20 mg/m2 [5]

C[C@H](NC(=O)c1cc(Cl)cc(C(F)(F)F)c1)c1ncnn1-c1ccc(C#N)cn1 [Example I-009]
100%: mortality at 100 ppm [1] | pest or weed control at 5 µg/cm2 [7] | mortality at 500 g/ha [4] | mortality at 4 ppm [8] | pest or weed control at 80 µg/disc, 250 g/ha [6]
90 to 100%: mortality at 4 mg/m2 [2] | mortality at 20 mg/m2 [2] | mortality at 4 mg/m2 [3]

Cc1nc([C@H](C)NC(=O)c2cc(Cl)cc(C(F)(F)F)c2)n(-c2ccc(C#N)cn2)n1 [Example I-049]
100%: mortality at 100 ppm [1] | pest or weed control at 5 µg/cm2 [7] | mortality at 100 g/ha [4] | mortality at 500 g/ha [4] | mortality at 4 ppm [8] | pest or weed control at 160 µg/disc, 500 g/ha [6]
90 to 100%: mortality at 4 mg/m2 [2] | mortality at 20 mg/m2 [2] | mortality at 4 mg/m2 [3] | mortality at 20 mg/m2 [3] | mortality at 20 mg/m2 [5]
80%: pest or weed control at 80 µg/disc, 250 g/ha [6]

C[C@H](NC(=O)c1cc(Cl)cc(S(F)(F)(F)(F)F)c1)c1ncnn1-c1ccc(C#N)cn1 [Example I-048]
85 to 100%: mortality at 4 mg/m2 [5]
90 to 100%: mortality at 4 mg/m2 [2] | mortality at 20 mg/m2 [2] | mortality at 4 mg/m2 [3] | mortality at 20 mg/m2 [3]
100%: mortality at 100 ppm [1] | pest or weed control at 5 µg/cm2 [7] | mortality at 100 g/ha [4] | mortality at 500 g/ha [4] | mortality at 4 ppm [8] | pest or weed control at 80 µg/disc, 250 g/ha [6] | pest or weed control at 160 µg/disc, 500 g/ha [6]

CC(c1ncnn1-c1ccc(C#N)cn1)N(CC1CC1)C(=O)c1cc(Cl)cc(C(F)(F)F)c1 (stereo not shown) [Example I-007]
90%: mortality at 4 ppm [8]
100%: mortality at 100 ppm [1] | pest or weed control at 5 µg/cm2 [7] | mortality at 100 g/ha [4] | mortality at 500 g/ha [4] | mortality at 20 ppm ([8]; 20 ppm) | pest or weed control at 80 µg/disc, 250 g/ha [6] | pest or weed control at 160 µg/disc, 500 g/ha [6]
90 to 100%: mortality at 4 mg/m2 [2] | mortality at 20 mg/m2 [2] | mortality at 4 mg/m2 [3] | mortality at 20 mg/m2 [3]
